Experimental data: PubChem BioAssay (NCI)
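Tested at 5 concentrations; 48 h exposure; 96-well plates; endpoints linearly interpolated, else capped at highest concentration. Here, GI50 denotes the concentration required for 50% inhibition of growth. The concentration for full growth arrest is given as TGI.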

What was measured:
Experiment in all cases: inhibition of tumour cell growth, NCI panel, 48 h; in the data active = GI50 below about 0.43 µM; inactive = the rest
SK-MEL-5 melanoma = test system: SK-MEL-5 melanoma
OVCAR-3 ovarian = test system: OVCAR-3 ovarian
UACC-257 melanoma = test system: UACC-257 melanoma
U251 CNS = test system: U251 CNS
A549 NSCLC = test system: A549 NSCLC
SK-MEL-28 melanoma = test system: SK-MEL-28 melanoma
HS 578T breast = test system: HS 578T breast
UACC-62 melanoma = test system: UACC-62 melanoma
OVCAR-4 ovarian = test system: OVCAR-4 ovarian
SK-MEL-2 melanoma = test system: SK-MEL-2 melanoma
EKVX NSCLC = test system: EKVX NSCLC
SF-539 CNS = test system: SF-539 CNS
RPMI-8226 leukemia = test system: RPMI-8226 leukemia
HOP-92 NSCLC = test system: HOP-92 NSCLC
TK-10 renal = test system: TK-10 renal
SK-OV-3 ovarian = test system: SK-OV-3 ovarian
SF-268 CNS = test system: SF-268 CNS
K-562 leukemia = test system: K-562 leukemia
HL-60(TB) leukemia = test system: HL-60(TB) leukemia
HCT-15 colon = test system: HCT-15 colon
MOLT-4 leukemia = test system: MOLT-4 leukemia
NCI-H226 lung = test system: NCI-H226 lung
M14 melanoma = test system: M14 melanoma
UO-31 renal = test system: UO-31 renal
MDA-MB-231 breast = test system: MDA-MB-231 breast
KM12 colon = test system: KM12 colon
SF-295 CNS = test system: SF-295 CNS
PC-3 prostate = test system: PC-3 prostate
SW-620 colon = test system: SW-620 colon
HOP-62 NSCLC = test system: HOP-62 NSCLC
HCT-116 colon = test system: HCT-116 colon
OVCAR-5 ovarian = test system: OVCAR-5 ovarian
ACHN renal = test system: ACHN renal
MDA-MB-435 = test system: MDA-MB-435
NCI-H460 lung = test system: NCI-H460 lung
786-0 renal = test system: 786-0 renal
NCI-H522 lung = test system: NCI-H522 lung
IGROV1 ovarian = test system: IGROV1 ovarian
SR leukemia = test system: SR leukemia
LOX IMVI melanoma = test system: LOX IMVI melanoma
RXF 393 renal = test system: RXF 393 renal
COLO 205 colon = test system: COLO 205 colon
CCRF-CEM leukemia = test system: CCRF-CEM leukemia
CAKI-1 renal = test system: CAKI-1 renal
OVCAR-8 ovarian = test system: OVCAR-8 ovarian
BT-549 breast = test system: BT-549 breast
NCI-H23 lung = test system: NCI-H23 lung
SNB-19 CNS = test system: SNB-19 CNS
MCF7 breast = test system: MCF7 breast
SN12C renal = test system: SN12C renal
DU-145 prostate = test system: DU-145 prostate
NCI/ADR-RES ovarian = test system: NCI/ADR-RES ovarian
SNB-75 CNS = test system: SNB-75 CNS
MALME-3M melanoma = test system: MALME-3M melanoma
HT29 colon = test system: HT29 colon
HCC-2998 colon = test system: HCC-2998 colon

Cc1cc(S(N)(=O)=O)c(S/C(=N\NS(=O)(=O)c2ccc(Cl)cc2)c2ccc(Cl)cc2)cc1Cl
inactive: GI50 (SK-MEL-5 melanoma) > 100 µM | GI50 (OVCAR-3 ovarian) > 100 µM | GI50 (UACC-257 melanoma) > 100 µM | GI50 (U251 CNS) 62.8 µM | GI50 (A549 NSCLC) 49.1 µM | GI50 (SK-MEL-28 melanoma) > 100 µM | GI50 (HS 578T breast) 79.7 µM | GI50 (UACC-62 melanoma) > 100 µM | GI50 (OVCAR-4 ovarian) > 100 µM | GI50 (SK-MEL-2 melanoma) > 100 µM | GI50 (EKVX NSCLC) > 100 µM | GI50 (SF-539 CNS) > 100 µM | GI50 (RPMI-8226 leukemia) 22 µM | GI50 (HOP-92 NSCLC) > 100 µM | GI50 (TK-10 renal) > 100 µM | GI50 (SK-OV-3 ovarian) > 100 µM | GI50 (SF-268 CNS) > 100 µM | GI50 (K-562 leukemia) 45.3 µM | GI50 (HL-60(TB) leukemia) 40.6 µM | GI50 (HCT-15 colon) > 100 µM | GI50 (MOLT-4 leukemia) 8.12 µM | GI50 (NCI-H226 lung) 92.4 µM | GI50 (M14 melanoma) > 100 µM | GI50 (UO-31 renal) > 100 µM | GI50 (MDA-MB-231 breast) > 100 µM | GI50 (KM12 colon) 70.6 µM | GI50 (SF-295 CNS) > 100 µM | GI50 (PC-3 prostate) 56.8 µM | GI50 (SW-620 colon) > 100 µM | GI50 (HOP-62 NSCLC) > 100 µM | GI50 (HCT-116 colon) > 100 µM | GI50 (OVCAR-5 ovarian) > 100 µM | GI50 (ACHN renal) 38.6 µM | GI50 (MDA-MB-435) > 100 µM | GI50 (NCI-H460 lung) > 100 µM | GI50 (786-0 renal) > 100 µM | GI50 (NCI-H522 lung) > 100 µM | GI50 (IGROV1 ovarian) > 100 µM | GI50 (SR leukemia) 29.1 µM | GI50 (LOX IMVI melanoma) > 100 µM | GI50 (RXF 393 renal) > 100 µM | GI50 (COLO 205 colon) 85.2 µM | GI50 (CCRF-CEM leukemia) 61 µM | GI50 (CAKI-1 renal) > 100 µM | GI50 (OVCAR-8 ovarian) > 100 µM | GI50 (BT-549 breast) > 100 µM | GI50 (NCI-H23 lung) 44.2 µM | GI50 (SNB-19 CNS) > 100 µM | GI50 (MCF7 breast) > 100 µM | GI50 (SN12C renal) > 100 µM | GI50 (DU-145 prostate) > 100 µM | GI50 (NCI/ADR-RES ovarian) > 100 µM
> 100 µM: TGI (SK-MEL-5 melanoma) | TGI (OVCAR-3 ovarian) | TGI (UACC-257 melanoma) | TGI (U251 CNS) | TGI (A549 NSCLC) | TGI (SK-MEL-28 melanoma) | TGI (HS 578T breast) | TGI (UACC-62 melanoma) | TGI (OVCAR-4 ovarian) | TGI (SK-MEL-2 melanoma) | TGI (EKVX NSCLC) | TGI (SF-539 CNS) | TGI (RPMI-8226 leukemia) | TGI (HOP-92 NSCLC) | TGI (TK-10 renal) | TGI (SK-OV-3 ovarian) | TGI (SF-268 CNS) | TGI (K-562 leukemia) | TGI (HL-60(TB) leukemia) | TGI (HCT-15 colon) | TGI (MOLT-4 leukemia) | TGI (NCI-H226 lung) | TGI (M14 melanoma) | TGI (UO-31 renal) | TGI (MDA-MB-231 breast) | TGI (KM12 colon) | TGI (SF-295 CNS) | TGI (PC-3 prostate) | TGI (SW-620 colon) | TGI (HOP-62 NSCLC) | TGI (HCT-116 colon) | TGI (OVCAR-5 ovarian) | TGI (ACHN renal) | TGI (MDA-MB-435) | TGI (NCI-H460 lung) | TGI (786-0 renal) | TGI (NCI-H522 lung) | TGI (IGROV1 ovarian) | TGI (SR leukemia) | TGI (LOX IMVI melanoma) | TGI (RXF 393 renal) | TGI (COLO 205 colon) | TGI (CCRF-CEM leukemia) | TGI (CAKI-1 renal) | TGI (OVCAR-8 ovarian) | TGI (BT-549 breast) | TGI (NCI-H23 lung) | TGI (SNB-19 CNS) | TGI (MCF7 breast) | TGI (SN12C renal) | TGI (DU-145 prostate) | TGI (NCI/ADR-RES ovarian)

CCOC(=O)Cc1csc(/N=C\c2c(O)c3ccccc3oc2=O)n1
77.1 µM: TGI (OVCAR-3 ovarian)
74.5 µM: TGI (UACC-257 melanoma)
94.4 µM: TGI (NCI-H23 lung)
64 µM: TGI (NCI/ADR-RES ovarian)
75.9 µM: TGI (HOP-62 NSCLC)
68.2 µM: TGI (SF-295 CNS)
97.8 µM: TGI (NCI-H226 lung)
85.4 µM: TGI (MDA-MB-435)
85.9 µM: TGI (CCRF-CEM leukemia)
52 µM: TGI (SR leukemia)
7.43 µM: TGI (HL-60(TB) leukemia)
56.7 µM: TGI (SF-539 CNS) | TGI (SNB-75 CNS)
> 100 µM: TGI (U251 CNS) | TGI (A549 NSCLC) | TGI (SK-MEL-28 melanoma) | TGI (HS 578T breast) | TGI (UACC-62 melanoma) | TGI (OVCAR-4 ovarian) | TGI (EKVX NSCLC) | TGI (TK-10 renal) | TGI (SK-OV-3 ovarian) | TGI (SF-268 CNS) | TGI (HCT-15 colon) | TGI (M14 melanoma) | TGI (UO-31 renal) | TGI (HT29 colon) | TGI (KM12 colon) | TGI (PC-3 prostate) | TGI (SW-620 colon) | TGI (HCT-116 colon) | TGI (OVCAR-5 ovarian) | TGI (ACHN renal) | TGI (NCI-H460 lung) | TGI (786-0 renal) | TGI (IGROV1 ovarian) | TGI (LOX IMVI melanoma) | TGI (RXF 393 renal) | TGI (COLO 205 colon) | TGI (CAKI-1 renal) | TGI (OVCAR-8 ovarian) | TGI (SNB-19 CNS) | TGI (MCF7 breast)
47.3 µM: TGI (HOP-92 NSCLC)
51.6 µM: TGI (RPMI-8226 leukemia)
52.6 µM: TGI (SK-MEL-5 melanoma)
40.4 µM: TGI (SK-MEL-2 melanoma)
24.3 µM: TGI (MALME-3M melanoma)
42.7 µM: TGI (MOLT-4 leukemia)
42.4 µM: TGI (NCI-H522 lung)

C=C1C(=O)O[C@H]2C1C[C@@H](O)[C@@]1(C)OC1CC[C@@]1(C)O[C@H]21 (stereo not given in full)
98.9 µM: TGI (HT29 colon)
98.8 µM: TGI (HS 578T breast)
42.4 µM: TGI (SN12C renal)
47.1 µM: TGI (SK-MEL-2 melanoma)
29.6 µM: TGI (SK-MEL-5 melanoma)
31.4 µM: TGI (UACC-62 melanoma)
34.3 µM: TGI (HCT-116 colon)
83.9 µM: TGI (PC-3 prostate)
60 µM: TGI (MDA-MB-435)
63.9 µM: TGI (OVCAR-5 ovarian)
29.2 µM: TGI (MALME-3M melanoma)
27 µM: TGI (ACHN renal)
53.2 µM: TGI (KM12 colon)
37.9 µM: TGI (HCT-15 colon)
31.3 µM: TGI (M14 melanoma)
29 µM: TGI (MCF7 breast)
34.4 µM: TGI (RXF 393 renal)
24.8 µM: TGI (MOLT-4 leukemia)
32.6 µM: TGI (HOP-92 NSCLC)
32.1 µM: TGI (RPMI-8226 leukemia)
40.7 µM: TGI (MDA-MB-231 breast)
23.1 µM: TGI (CCRF-CEM leukemia)
64 µM: TGI (NCI/ADR-RES ovarian)
20 µM: TGI (NCI-H522 lung)
30.7 µM: TGI (HCC-2998 colon)
25.8 µM: TGI (COLO 205 colon)
39.8 µM: TGI (SR leukemia)
42.3 µM: TGI (UACC-257 melanoma)
38.5 µM: TGI (SW-620 colon)
> 100 µM: TGI (U251 CNS) | TGI (A549 NSCLC) | TGI (SNB-75 CNS) | TGI (SK-OV-3 ovarian) | TGI (SF-268 CNS) | TGI (SF-295 CNS) | TGI (NCI-H460 lung) | TGI (OVCAR-8 ovarian) | TGI (SNB-19 CNS) | TGI (DU-145 prostate)
35.3 µM: TGI (TK-10 renal)
32.5 µM: TGI (K-562 leukemia) | TGI (UO-31 renal)
27.5 µM: TGI (LOX IMVI melanoma)
40.9 µM: TGI (786-0 renal)
38.8 µM: TGI (SK-MEL-28 melanoma)
36 µM: TGI (EKVX NSCLC)
30.3 µM: TGI (OVCAR-4 ovarian)
37.4 µM: TGI (NCI-H23 lung)
34.1 µM: TGI (CAKI-1 renal)

NC(N)=Nc1ccc(-n2nc(C(F)(F)F)cc2-c2ccc3c(ccc4ccccc43)c2)cc1
15.6 µM: TGI (NCI/ADR-RES ovarian)
4.92 µM: TGI (MOLT-4 leukemia)
5.53 µM: TGI (CCRF-CEM leukemia)
inactive: GI50 (HS 578T breast) 1.59 µM | GI50 (RPMI-8226 leukemia) 2.16 µM | GI50 (HL-60(TB) leukemia) 1.09 µM | GI50 (MOLT-4 leukemia) 2.35 µM | GI50 (CCRF-CEM leukemia) 2.05 µM | GI50 (NCI/ADR-RES ovarian) 3.14 µM
4.34 µM: TGI (HS 578T breast)
5.06 µM: TGI (RPMI-8226 leukemia)
2.82 µM: TGI (HL-60(TB) leukemia)
